Structures can show the parent of a compound that is named as a salt. Where two headings read alike, the source gives them in different places. Blank lines part the entries; values can stand above or below the compound they belong to.
Tests used:
[1] = target: T1, MAO-B (Rattus norvegicus, UniProt P19643); experiment: biochemical; format: biochemical
T1 sequence (P19643 1-520): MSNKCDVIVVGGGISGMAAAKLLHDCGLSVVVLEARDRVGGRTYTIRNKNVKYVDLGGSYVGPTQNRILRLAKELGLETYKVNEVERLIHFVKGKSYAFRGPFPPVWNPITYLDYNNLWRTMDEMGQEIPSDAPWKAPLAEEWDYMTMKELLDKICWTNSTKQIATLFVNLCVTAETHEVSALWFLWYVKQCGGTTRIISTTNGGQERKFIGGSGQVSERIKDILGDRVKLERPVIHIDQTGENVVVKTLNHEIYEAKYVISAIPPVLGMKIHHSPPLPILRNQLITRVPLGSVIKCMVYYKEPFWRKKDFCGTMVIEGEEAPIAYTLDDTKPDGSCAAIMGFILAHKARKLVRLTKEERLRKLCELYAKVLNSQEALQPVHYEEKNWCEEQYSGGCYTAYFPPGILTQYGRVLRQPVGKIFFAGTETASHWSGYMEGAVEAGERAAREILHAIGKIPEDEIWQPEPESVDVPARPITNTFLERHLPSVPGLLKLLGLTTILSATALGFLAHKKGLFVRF
Method: (§1) The aliphatic propargylamine inhibitors (from 1×10^-10 M to 1×10^-4 M) were preincubated with the MAO for 20 min. at ambient room temperature and then the residual enzyme activities were determined by addition of the substrates, followed by further incubation at 37° C. for 30 min. The enzymatic reactions were terminated by the addition of citric acid and the aldehyde products were extracted with toluene: ethyl acetate (1:1, v/v) and the radio-activities assessed in a scintillation counter.

[2] = target: T2, MAO-A (Rattus norvegicus, UniProt P21396); experiment: biochemical; format: biochemical
T2 sequence (P21396 1-526): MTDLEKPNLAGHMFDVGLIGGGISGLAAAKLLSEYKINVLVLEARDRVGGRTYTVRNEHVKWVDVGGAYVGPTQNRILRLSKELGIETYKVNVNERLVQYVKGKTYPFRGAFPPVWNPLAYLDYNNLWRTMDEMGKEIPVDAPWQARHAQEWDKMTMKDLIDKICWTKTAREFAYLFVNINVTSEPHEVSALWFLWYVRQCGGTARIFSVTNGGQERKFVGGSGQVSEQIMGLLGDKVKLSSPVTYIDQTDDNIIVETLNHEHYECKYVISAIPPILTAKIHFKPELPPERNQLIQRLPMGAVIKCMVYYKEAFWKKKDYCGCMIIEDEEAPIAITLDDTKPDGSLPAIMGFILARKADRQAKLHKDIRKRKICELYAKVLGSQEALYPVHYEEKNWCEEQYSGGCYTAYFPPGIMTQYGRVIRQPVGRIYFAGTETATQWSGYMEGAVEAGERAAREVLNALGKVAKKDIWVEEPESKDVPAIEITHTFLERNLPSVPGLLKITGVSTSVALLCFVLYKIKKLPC
Method: as §1

[3] = target: T3, MAO-B (Mus musculus, UniProt Q8BW75); experiment: in vivo; format: in vivo; conditions: for ED50: read-out: PE ID50; for Ratio MAO-A/MAO-B: 120 min
T3 construct: MAO activities in the mouse brain after; from tissue
T3 sequence (Q8BW75 1-520): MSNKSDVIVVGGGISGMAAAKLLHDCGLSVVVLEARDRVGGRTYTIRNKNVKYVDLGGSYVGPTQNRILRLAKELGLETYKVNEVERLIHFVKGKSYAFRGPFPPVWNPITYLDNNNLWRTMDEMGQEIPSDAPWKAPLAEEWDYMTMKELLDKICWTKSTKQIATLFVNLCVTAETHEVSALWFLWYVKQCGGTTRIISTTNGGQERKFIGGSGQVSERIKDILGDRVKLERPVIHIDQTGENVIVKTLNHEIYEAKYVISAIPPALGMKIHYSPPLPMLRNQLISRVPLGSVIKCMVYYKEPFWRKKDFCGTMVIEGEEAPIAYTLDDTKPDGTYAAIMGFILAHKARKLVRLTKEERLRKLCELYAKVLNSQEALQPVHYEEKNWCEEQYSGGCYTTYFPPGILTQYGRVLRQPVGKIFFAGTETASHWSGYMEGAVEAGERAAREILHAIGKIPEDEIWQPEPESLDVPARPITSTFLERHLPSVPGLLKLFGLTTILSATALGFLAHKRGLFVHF
Method: (§2) Albino Swiss mice were used in this study. The animals were injected intraperitoneally with different doses of the aliphatic propargylamines in 100 μL saline.
(§3) 0.5, 1, 2, 5, 10, 20, 50, 100 mg/Kg. Striata were dissected from the brai
(§4) two hours after i.p. administration of the drugs. MAOA and MAOB activitie
(§5) were determined immediately. The values were estimated from doseresponse

[4] = target: T4, MAO-A (Mus musculus, UniProt Q64133); format: in vivo
T4 construct: MAO activities in the mouse brain after; from tissue
T4 sequence (Q64133 1-526): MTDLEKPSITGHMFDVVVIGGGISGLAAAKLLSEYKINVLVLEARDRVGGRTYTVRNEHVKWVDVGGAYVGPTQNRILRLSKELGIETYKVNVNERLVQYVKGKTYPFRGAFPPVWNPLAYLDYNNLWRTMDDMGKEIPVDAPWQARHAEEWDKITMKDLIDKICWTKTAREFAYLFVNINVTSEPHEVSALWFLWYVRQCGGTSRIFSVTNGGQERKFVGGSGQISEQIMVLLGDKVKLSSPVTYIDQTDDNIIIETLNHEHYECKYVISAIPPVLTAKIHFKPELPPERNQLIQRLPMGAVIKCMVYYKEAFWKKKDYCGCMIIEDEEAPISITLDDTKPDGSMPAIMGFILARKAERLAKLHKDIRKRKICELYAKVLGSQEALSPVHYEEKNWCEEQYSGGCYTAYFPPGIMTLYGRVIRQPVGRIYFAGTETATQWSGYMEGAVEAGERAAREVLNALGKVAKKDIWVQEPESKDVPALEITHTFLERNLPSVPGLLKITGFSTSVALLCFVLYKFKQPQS
Method: (§6) Table 3 indicates the MAO activities in the mouse brain following oral administration of the aliphatic propargylamines.
(§7) of each compound. Striata were dissected from the brain two hours after
(§8) the administration of the drugs. MAOA and MAOB activities were determined

[5] = target: T3, MAO-B; experiment: MAO-B activity in the mouse brain after oral administration (substrate PE); format: in vivo; conditions: for Relative activity PE: oral 10 mg/Kg, PE (1.9 × 10^-5 M), mean ± standard error, saline = 100
Method: as §6, §7, §8
Striata were dissected from the brain two
hours after oral administration of the drugs. MAOB activities were then
determined immediately. The values were estimated from doseresponse

[6] = target: T4, MAO-A; experiment: in vivo; conditions: ip, read-out: 5-HT ID50
Method: as §2, §3, §4, §5

[7] = target: monoamine oxidase; experiment: Inhibition of rat liver monoamine oxidase deamination of dopamine (DA, mixed-type MAO A and B substrate) in vitro; format: biochemical; conditions: substrate DA (5 × 10^-4 M), average of at least 3 independent experiments
Method: as §1

[8] = substrate 5-HT (5 × 10^-4 M), rat liver MAO, in vitro, average of at least 3 independent experiments
[9] = ID50 i.p. in mice versus IC50 in vitro
[10] = mouse, ip, 2 hours after administration, […], estimated from dose response curves
[11] = oral 10 mg/Kg, 2 hours, 5-HT (5 × 10^-4 M), mean ± standard error, saline = 100
[12] = 2 hours after administration, 5-HT 5 × 10^-4 M, estimated from dose response curves
[13] = substrate PE (1.9 × 10^-5 M), rat liver MAO, in vitro, average of at least 3 independent experiments

SMILES: C#CCN(C)CCCCCl.Cl [Cl-1-BuMP, N-(4-Chloro-1-butyl)-N-methylpropargylamine-HCl]
IC50 ([1]; […], rat liver MAO, in vitro, average of at least 3 independent experiments, read-out: PE IC50): 10000 nM
Ratio MAO-A/MAO-B ([1]; ratio of IC50 values, in vitro): > 10
IC50 [2, 8]: > 100000 nM

SMILES: C#CCN(CC)CCCC.O=C(O)C(=O)O [Example 1-BuEP, N-(1-Butyl)-N-ethylpropargylamine oxalate salt]
PE IC50 [1]: inactive
5-HT IC50 [2, 8]: inactive

SMILES: C#CCN(C)CCCCCCC.Cl [Example 1-HMP, N-(1-Heptyl)-N-methylpropargylamine hydrochloride]
MAO-B ID50 (mg/Kg) / IC50 (1 × 10^-6 M) [3, 9]: 7.5 (mg/Kg)/(1 × 10^-6 M)
ED50 [3, 10]: 15 mg/kg
Ratio MAO-A/MAO-B ([3]; ratio of ID50 values, i.p.): 7
Relative activity 5-HT [4, 11]: 123 ± 16%
Relative activity PE ([5]; 2 hours): 118 ± 14%
ED50 [6, 12]: 100 mg/kg
Ratio MAO-A/MAO-B ([1]; ratio of IC50 values, in vitro): 20
IC50 ([1]; read-out: PE IC50): 2000 nM
IC50 [2, 8]: 40000 nM

PE IC50 [1, 13]: inactive
5-HT IC50 [2, 8]: inactive
SMILES: C#CCN(CC)C(C)CC (centres unmarked) [Example 2-BuEP, N-(2-Butyl)-N-ethylpropargylamine hydrochloric salt]

SMILES: C#CCNC(C)CC.Cl (centres unmarked) [Example 2-BuPP, N-(2-Butyl)propargylamine hydrochloride salt]
PE IC50 [1]: inactive
5-HT IC50 [2, 8]: inactive

SMILES: C#CCN(C)C(C)CCCCCCCC.Cl (centres unmarked) [Example 2-DMP, N-(2-Decyl)-N-methylpropargylamine hydrochloride]
MAO-B ID50 (mg/Kg) / IC50 (1 × 10^-6 M) [3, 9]: 25 (mg/Kg)/(1 × 10^-6 M)
ED50 [3, 10]: 5 mg/kg
Ratio MAO-A/MAO-B ([3]; ratio of ID50 values, i.p.): 7
Relative activity 5-HT [4, 11]: 97 ± 8%
effectiveness in blocking MAO-B activity in vivo after acute oral administration (in words) ([5]; mouse, oral): less potent at inhibiting MAO-B activity in vivo after acute administration
ED50 ([5]; mouse, oral, 2 hours, average of 5 animals per dose, estimated from dose response curves, read-out: Inhibition of MAO-B activity, dose response (ID50)): 50 mg/kg
Relative activity PE ([5]; 2 hours): 104 ± 7%
ED50 [6, 12]: 35 mg/kg
Ratio MAO-A/MAO-B ([1]; ratio of IC50 values, in vitro): 50
IC50 ([1]; read-out: PE IC50): 200 nM
IC50 [2, 8]: 4000 nM
IC50 [7]: 200 nM

SMILES: C#CCN(C)C(C)CCCCCCCCCC.Cl (centres unmarked) [Example 2-DdMP, N-(2-dodecyl)-N-methylpropargylamine-HCl]
MAO-B ID50 (mg/Kg) / IC50 (1 × 10^-6 M) ([3]; mouse, in vivo, ip): 100
Ratio MAO-A/MAO-B ([3]; mouse, in vivo, ip): 15
ED50 ([3]; mouse, ip, 2 h): 4 mg/kg
Relative activity 5-HT ([4]; mouse, in vivo, po, 10 mg/kg): 107 ± 14
effectiveness in blocking MAO-B activity in vivo after acute oral administration (in words) ([5]; mouse, oral): less potent at inhibiting MAO-B activity in vivo after acute administration
Relative activity PE ([5]; 2 hours): 64 ± 8%
ED50 ([6]; 2 h): 60 mg/kg
Ratio MAO-A/MAO-B ([1]; rat, liver mitochondrial membranes): 50
IC50 [1, 13]: 40 nM
IC50 ([2]; read-out: 5-HT IC50): 2000 nM
IC50 [7]: 300 nM

From patent US5508311A, “Aliphatic propargylamines as selective MAO-B inhibitors and as neuroprotective agents” (University of Saskatchewan, priority 1993, dated 1996)
